The values below come from publication PMC10530836, “Synthesis, Molecular Docking, and Biological Evaluation of Novel Anthranilic Acid Hybrid and Its Diamides as Antispasmodics” (International Journal of Molecular Sciences, 2023).

The term IC50 denotes the point on the concentration scale where inhibition reaches its midpoint.

Assay [1] deals with K-562, LAMA-84, T-24, CCL-1 cell lines. The assay is described as follows: MTT cell viability assay, cell line panel. The following applies: leukemic cells LAMA-84 and K-562; read-out: IC50 estimates. Type of assay: cell-based. The procedure:
Based on the PASS online and the ProToxII in silico calculations, the evaluation of the cytotoxic activity of the compounds was the other object of our investigation. A series of MTT experiments were conducted to evaluate the in vitro effects of the tested compounds on cell growth in both normal (murine fibroblast CCL-1 cells) and malignant human cell lines of leukemic (K-562, LAMA-84) and epithelial (T-24 bladder carcinoma cells) origin.
To evaluate the biocompatibility of the hybrid compounds, their in vitro antiproliferative activity was assessed in a panel of human malignant cell lines of different origin (K-562 and LAMA-84 suspension-growing myeloid leukemia cells, positive for the Philadelphia chromosome, and the urothelial bladder carcinoma cell line T-24 of adherent type). Non-malignant murine fibroblast cells (CCL-1) were also used as a screening platform. […]
The effects of the newly synthesized anthranilic derivatives on cell viability were measured using a validated colorimetric assay for evaluating cell viability, known as the Mosmann MTT method. […] The latter was dissolved in isopropyl alcohol solution containing 5% formic acid prior to absorbance measurement at 550 nm. Collected absorbance values were blanked against MTT and isopropanol solution and normalized to the mean value of untreated control (100% cell viability).

The subject of assay [2] is Gram-positive bacteria, Gram-negative bacteria, yeasts and fungi. Kind of assay: Antimicrobial activity, whole panel. Type of assay: cell-based. The conditions noted are these: agar well diffusion. The procedure:
In our experiments, six Gram-positive bacteria, six Gram-negative bacteria, two yeasts, and six fungi were used. The hybrid molecule and its diamides were tested in vitro for their antimicrobial activity against human pathogenic bacteria and economically relevant phytopathogenic fungi. The inhibition zones of bacterial and fungal growth caused by the novel compounds are outlined in Table 3. The obtained results were compared to a known antispasmodic mebeverine and its precursors. […]
The antimicrobial activity of the samples was determined by the agar well diffusion method. […]
The inocula of the tested bacteria/yeasts was prepared by homogenization of a small amount of biomass in 5 mL of sterile 0.5% NaCl. […] The number of viable cells and fungal spores was determined using a bacterial counting chamber Thoma (Poly-Optik, GmbH, Bad Blankenburg, Germany). […] Next, the inoculated media were transferred in a quantity of 18 mL in sterile Petri plates (d = 90 mm) (Gosselin™, Hazebrouck, France) and allowed to harden. […]
The antimicrobial activity was determined by measuring the diameter of the inhibition zones around the wells on the 24th and 48th h of incubation. […]
(In agar diffusion tests the substance spreads into inoculated agar from a disc or well.)

Regarding `O=C(Nc1ccccc1C(=O)NCCc1cccc(Cl)c1)c1ccccc1` [Compound 4b, 2-benzamido-N-(3-chlorophenethyl)benzamide], in assay [1], the IC50 is 30 to 60 µM.

On to `Nc1ccccc1C(=O)NCCc1cccc(Cl)c1` [Compound 3, 2-amino-N-(3-chlorophenethyl)benzamide], for which, in assay [2], the “antimicrobial activity (overall, in words)” value was “very good antimicrobial activity”.
